We go through eleven compounds from patent US9550782B2, “Compounds and methods for treating diabetes” (Medivation Technologies, Inc., priority 2011, dated 2017).

Experiment [1] deals with T1, human recombinant adrenergic α2A receptor (Homo sapiens, UniProt P08913).
T1 construct: expressed in transfected cells; host or cells: insect Sf9 cells
T1 sequence (P08913 1-465): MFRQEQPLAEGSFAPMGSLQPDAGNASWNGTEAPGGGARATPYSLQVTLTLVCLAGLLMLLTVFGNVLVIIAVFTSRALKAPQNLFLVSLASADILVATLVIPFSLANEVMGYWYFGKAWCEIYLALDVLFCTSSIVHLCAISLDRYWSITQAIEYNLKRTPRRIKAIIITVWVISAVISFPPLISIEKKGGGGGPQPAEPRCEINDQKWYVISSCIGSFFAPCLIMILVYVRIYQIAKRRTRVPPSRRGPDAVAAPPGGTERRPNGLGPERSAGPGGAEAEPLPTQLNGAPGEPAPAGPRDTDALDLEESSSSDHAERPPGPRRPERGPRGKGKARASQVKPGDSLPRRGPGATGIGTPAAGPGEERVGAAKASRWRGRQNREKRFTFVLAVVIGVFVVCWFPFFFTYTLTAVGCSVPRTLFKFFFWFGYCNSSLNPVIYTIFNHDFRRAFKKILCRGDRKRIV
Description: Radioligand binding, adrenergic α2A ([3H]MK-912). To be noted: [3H]MK-912; for Percentage inhibition of ligand binding, Adrenergic α2A (0.1 μM): repeat datapoints each shown. The method in brief: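 Receptor expressed in Sf9 cells, in 50 mM Tris-HCl pH 7.4, 12.5 mM MgCl2, 2 mM EDTA; compounds incubated with 1 nM [3H]MK-912 for 60 min at 25 °C.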

In experiment [2] the target is T2, human recombinant adrenergic α2B receptor (Homo sapiens, UniProt P18089).
T2 construct: expressed in transfected cells; host or cells: CHO-K1
T2 sequence (P18089 1-450): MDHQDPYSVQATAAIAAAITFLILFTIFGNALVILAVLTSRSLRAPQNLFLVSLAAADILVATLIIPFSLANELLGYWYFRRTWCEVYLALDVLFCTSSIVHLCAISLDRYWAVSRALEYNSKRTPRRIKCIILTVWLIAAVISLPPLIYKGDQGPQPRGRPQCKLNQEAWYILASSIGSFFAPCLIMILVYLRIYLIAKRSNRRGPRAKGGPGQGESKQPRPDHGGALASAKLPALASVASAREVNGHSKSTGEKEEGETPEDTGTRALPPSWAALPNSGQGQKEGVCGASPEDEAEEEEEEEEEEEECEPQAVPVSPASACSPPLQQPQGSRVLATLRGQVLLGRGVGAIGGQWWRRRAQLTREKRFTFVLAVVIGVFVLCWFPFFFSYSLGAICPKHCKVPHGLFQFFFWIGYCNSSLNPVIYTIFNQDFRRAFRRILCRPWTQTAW
As to the kind of experiment: Radioligand binding, adrenergic α2B ([3H]Rauwolscine). The note with it: for Percentage inhibition of ligand binding, Adrenergic α2B (0.03 μM): repeat datapoints each shown. The method in brief: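 Receptor expressed in CHO-K1 cells, assayed in 50 mM Tris-HCl pH 7.4 with 12.5 mM MgCl2, 1 mM EDTA and 0.2% BSA. Compounds were incubated with 2.5 nM [3H]Rauwolscine for 60 min at 25° C; 10 μM Prazosin defined non-specific binding. Filter counting gave percent inhibition of specific binding.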

Experiment [3] addresses T3, rat adrenergic α1B receptor (Rattus norvegicus, UniProt P15823).
T3 construct: rat adrenergic α1B receptor obtained from Wistar Rat liver; from tissue; host or cells: Wistar rat liver
T3 sequence (P15823 1-515): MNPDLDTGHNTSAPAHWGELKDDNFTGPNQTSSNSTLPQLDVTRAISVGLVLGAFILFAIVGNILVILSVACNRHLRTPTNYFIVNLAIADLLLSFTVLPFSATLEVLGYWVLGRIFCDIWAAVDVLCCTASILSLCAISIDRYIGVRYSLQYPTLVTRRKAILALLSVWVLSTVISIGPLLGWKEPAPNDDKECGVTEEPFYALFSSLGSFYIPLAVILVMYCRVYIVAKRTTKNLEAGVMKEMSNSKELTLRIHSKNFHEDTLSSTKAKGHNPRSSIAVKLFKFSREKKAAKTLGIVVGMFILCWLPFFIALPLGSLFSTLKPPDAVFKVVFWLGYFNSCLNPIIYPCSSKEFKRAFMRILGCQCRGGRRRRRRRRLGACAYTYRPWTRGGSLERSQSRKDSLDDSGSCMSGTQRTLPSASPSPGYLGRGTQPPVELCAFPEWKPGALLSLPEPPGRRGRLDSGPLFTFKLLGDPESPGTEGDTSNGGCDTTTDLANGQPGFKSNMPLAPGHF
Description: Radioligand binding, adrenergic α1B ([3H]Prazosin). Also on record: species or system Wistar Rat. To be noted: for Percentage inhibition of ligand binding, Adrenergic α1B (0.1 μM): repeat datapoints each shown. In outline:
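Specific binding, taken as total minus that remaining with 10 μM phentolamine, is measured after filtration and counting. Rat liver receptor preparation and 0.25 nM [3H]prazosin are incubated with compound in 50 mM Tris-HCl (pH 7.4, 0.5 mM EDTA) at 25° C for 60 min. Activity is reported as percent inhibition.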

Molecules are shown by their SMILES. Values joined by “and” are separate entries in the source; they are usually repeats but may differ in a detail not shown here. Equal values may be shown once.

For `Cc1ccc2c(c1)c1c(n2CC(C)(O)c2ccc(C)nc2)CN(C)CC1` (single isomer, unassigned) [196a], the “Percentage inhibition of ligand binding, Adrenergic α2A” value in experiment [1] (0.03 μM compound) was 37%; in experiment [1] (0.1 μM compound, 0.1 µM) it was 58% and 71%. The “Percentage inhibition of ligand binding, Adrenergic α2B” value in experiment [2] (0.03 μM compound, 0.03 µM) was 93% and 103%. The “Percentage inhibition of ligand binding, Adrenergic α1B” value came out at 30% in experiment [3] (0.03 μM compound) and 54.6% in experiment [3] (0.1 μM compound, 0.1 µM).
As for `OCCN1CCc2c(c3cc(Cl)ccc3n2CC(O)c2ccncc2)C1` (single isomer, unassigned) [II-93a], the “Percentage inhibition of ligand binding, Adrenergic α2A” value in experiment [1] (compound at 0.1 μM, 0.1 µM) is 7%. Besides, in experiment [2] (compound at 0.03 μM), the “Percentage inhibition of ligand binding, Adrenergic α2B” value is 24%. In experiment [3] (compound at 0.1 μM), the “Percentage inhibition of ligand binding, Adrenergic α1B” value came out at 6%.
Regarding `OCCN1CCc2c(c3cc(Cl)ccc3n2CC(O)c2cccnc2)C1` (single isomer, unassigned) [II-94b], the “Percentage inhibition of ligand binding, Adrenergic α2A” value in experiment [1] (compound at 0.1 μM, 0.1 µM) was −5%. In addition, the “Percentage inhibition of ligand binding, Adrenergic α2B” value in experiment [2] (compound at 0.03 μM, 0.03 µM) is reported as 24%. Also, the “Percentage inhibition of ligand binding, Adrenergic α1B” value in experiment [3] (compound at 0.1 μM) is given as 7%.
In the case of `Cc1cnc2c(c1)c1c(n2CC(C)(O)c2cccnc2)CCN(C)C1` (single isomer, unassigned) [II-99a], the “Percentage inhibition of ligand binding, Adrenergic α2A” value in experiment [1] (compound at 0.1 μM, 0.1 µM) was 24%. Further, the “Percentage inhibition of ligand binding, Adrenergic α2B” value in experiment [2] (compound at 0.03 μM, 0.03 µM) worked out at 49%. Besides, in experiment [3] (compound at 0.1 μM, 0.1 µM), the “Percentage inhibition of ligand binding, Adrenergic α1B” value was 12%.
For the compound `Cc1cnc2c(c1)c1c(n2CC(C)(O)c2cccnc2)CCN(C)C1` (single isomer, unassigned) [II-99b], the “Percentage inhibition of ligand binding, Adrenergic α2A” value in experiment [1] (compound at 0.1 μM, 0.1 µM) is reported as 16%. The “Percentage inhibition of ligand binding, Adrenergic α2B” value in experiment [2] (compound at 0.03 μM, 0.03 µM) is 7%. Moreover, in experiment [3] (compound at 0.1 μM, 0.1 µM), the “Percentage inhibition of ligand binding, Adrenergic α1B” value amounted to 5%.
As to `Cc1cnc2c(c1)c1c(n2CC(O)c2ccc(C)nc2)CCN(C)C1` (single isomer, unassigned) [II-100b], the “Percentage inhibition of ligand binding, Adrenergic α2A” value in experiment [1] (compound at 0.1 μM, 0.1 µM) worked out at 4%. Also, the “Percentage inhibition of ligand binding, Adrenergic α2B” value in experiment [2] (compound at 0.03 μM, 0.03 µM) was 1%. Besides, in experiment [3] (compound at 0.1 μM), the “Percentage inhibition of ligand binding, Adrenergic α1B” value is recorded as 24%.
On to `Cc1ccc2c(c1)c1c(n2CC(O)c2ccncc2)CN(C)CC1` (centres unmarked) [8a], for which the “Percentage inhibition of ligand binding, Adrenergic α2A (0.1 μM)” value in experiment [1] (compound at 0.1 μM, 0.1 µM) is 15%. For the same compound, the “Percentage inhibition of ligand binding, Adrenergic α2B (0.03 μM)” value (from here on “Percentage inhibition … (0.03 μM)”) in experiment [2] (compound at 0.03 μM, 0.03 µM) was found to be 22%. For the same compound, the “Percentage inhibition of ligand binding, Adrenergic α1B (0.1 μM)” value in experiment [3] (compound at 0.1 μM, 0.1 µM) was determined as 39%.
Take `Cc1ccc2c(c1)c1c(n2CC(C)(O)c2cccnc2)CN(C)CC1` (centres unmarked) [14b, 1-(2,6-dimethyl-1,2,3,4-tetrahydro-3-carbolin-9-yl)-2-pyridin-3-yl-propan-2-ol]: the “Percentage inhibition of ligand binding, Adrenergic α2A (0.1 μM)” value in experiment [1] (compound at 0.1 μM, 0.1 µM) is given as −6%. Moreover, the “Percentage inhibition … (0.03 μM)” value in experiment [2] (compound at 0.03 μM, 0.03 µM) was 14%. In experiment [3] (compound at 0.1 μM, 0.1 µM), the “Percentage inhibition of ligand binding, Adrenergic α1B (0.1 μM)” value was 25%.
Taken in the same sequence, the figures for `Cc1ccc2c(c1)c1c(n2CC(C)(O)c2ccc(C)nc2)CCN(C)C1` (centres unmarked) [29b] were 10%, 46% and 14%.
Taken in the same sequence, the figures for `CN1CCc2c(c3cc(Cl)ccc3n2CC(C)(O)c2cccnc2)C1` (centres unmarked) [31b] were 14%, 36% and 3%.
As for `Cc1cnc2c(c1)c1c(n2CCc2ccc(C)nc2)CCN2CCCC12` (centres unmarked) [74b, 10-methyl-7-(2-(6-methylpyridin-3-yl)ethyl)-2,3,5,6,7,1c-hexahydro-1H-pyrido[3′,2′:4,5]pyrrolo[2,3-g]indolizine], the “Percentage inhibition of ligand binding, Adrenergic α2A (0.1 μM)” value in experiment [1] (compound at 0.1 μM, 0.1 µM) was 14%. Besides, the “Percentage inhibition … (0.03 μM)” value in experiment [2] (compound at 0.03 μM, 0.03 µM) is 27%. The “Percentage inhibition of ligand binding, Adrenergic α1B (0.1 μM)” value in experiment [3] (compound at 0.1 μM, 0.1 µM) was found to be 28%.
